In patent publication US6660501B2, “Production of proteins by cell culture” (Lonza Group, AG, priority 1986, dated 2003):

Assays:
[1] = system: Syrian hamster cells with plasmid containing SV40 genome and HSV-TK gene; conditions: concentrations ranging from 1 mM to 5 mM; Yuan et al; cited from earlier work
hybridoma cell line H = assay: Harvest antibody titre, hybridoma cell line H; assay type: cell-based; conditions: SFM, 0.50 mM butyrate, control 62
Description: (§1) Hybridoma cells were grown in suspension culture in either serum-free medium (see Example 1) or in DMEM supplemented with 10% (v/v), heat inactivated foetal calf serum. Cells were cultured in either roller bottles or in shake-flasks, as in Example 1. Sodium butyrate was added to cultures immediately after inoculation.

hybridoma cell line G = assay: Harvest antibody titre, hybridoma cell line G; assay type: cell-based; conditions: SFM, control 10
Description: as §1

[2] = system: hybridoma cells (as Example 1, NB1/19); assay: Butyrate-enhanced antibody production in hybridoma cells cultured in serum supplemented medium; assay type: cell-based, mouse; conditions: DMEM + 10% foetal calf serum
Description: The IgM secreting mouse hybridoma cell line NB1/19 was grown in suspension culture in Dulbeccos Modified Eagles Minimum (DMEM) serum-free medium containing albumin, insulin, transferrin, gentamycin and other additives as required to cultivate cells in suspension culture. The NB1/19 cell line produces a mouse monoclonal antibody having specificity for an antigenic determinant of human B-type blood cells. The preparation of this call line is described in detail in the specification of British Patent GB 2097425B. It will be appreciated, however, that other hybridoma cell lines may be used in place of this particular cell line as appropriate in this and other examples.
The cells were grown to a viable cell density of 1.0-1.5×10^6 cells/ml. Viable cell density was determined by counting the number of cells which exclude trypan blue, a staining agent. A sample of the suspension culture was diluted in a serum-free medium to a density of about 1.3×10^5 cells/ml. […]
The shake flasks were gassed with 5% CO2-95% air, and sealed and incubated with shaking at 37° C. for up to 207 hours. (Table 1). Samples ([…]) were removed from the culture by pipette. 100 μl was used to determine viable cell count and the reminder centrifuged at 300×g for five minutes. Supernatants were stored at −20° C. prior to antibody determination by enzyme linked immunosorbent assay (ELISA).
The protocol for this experiment is similar to that outlined in Example 1, except that the cells were cultured in Dulbeccos Modified Eagles Minimum medium supplemented with 10% foetal calf serum.

hybridoma cell line B = assay: Harvest antibody titre, hybridoma cell line B; assay type: cell-based; conditions: SFM + 10% FCS, control 173
Description: as §1

[3] = system: CBMG human growth hormone producing cells; assay: Production of recombinant human growth hormone by CBMG cells (immunoradiometric assay); assay type: cell-based; conditions: serum-free maintenance medium, control 1.0
Description: The molecular biology of adherent CBMG human growth hormone producing cells has been described (G. N. Pavlakis et al PNAS (USA) Vol. 80 pp 397-401 (1983)).
CBMG cells were inoculated into tissue culture flasks at a density of 0.7×10^5 cells/cm^2 in Dulbeccos Modified Eagles Minimum (DMEM) supplemented with 10% foetal calf serum.
After the cells in culture had grown to confluency, the DMEM serum supplemented medium was replaced by serum-free DMEM maintenance medium. Sodium butyrate was added at 1 mM and 5 mM after transferring the cells from serum supplemented medium to maintenance medium. Levels of human growth hormone in the culture supernatant were measured after 48 hours by immunoradiometric assay.

hybridoma cell line D = assay: Harvest antibody titre, hybridoma cell line D; assay type: cell-based; conditions: SFM + 10% FCS, control 29
Description: as §1

hybridoma cell line C = assay: Harvest antibody titre, hybridoma cell line C; assay type: cell-based; conditions: DMEM + 10% FCS, 0.50 mM butyrate, control 51
Description: as §1

hybridoma cell line I = assay: Harvest antibody titre, hybridoma cell line I; assay type: cell-based; conditions: DMEM + 5% FCS, control 113
Description: […] Cells were cultured in either roller bottles or in shake-flasks, as in Example 1. Sodium butyrate was added to cultures immediately after inoculation.

hybridoma cell line K = assay: Harvest antibody titre, hybridoma cell line K; assay type: cell-based; conditions: SFM + 1% FCS, 0.50 mM butyrate, control 15
Description: as §1

hybridoma cell line A = assay: Harvest antibody titre, hybridoma cell line A; assay type: cell-based; conditions: SFM, control 28
Description: as §1

[4] = system: mouse C127 cell line producing recombinant tissue plasminogen activator (tPA); assay: Production of recombinant tPA from C127 cell line on microcarriers (fibrin-agar method; nuclei count); assay type: cell-based; conditions: for CONCENTRATION OF TPA PER ML: control 100
Description: A mouse C127 cell line producing recombinant tissue plasminogen activator (tPA) was cultured on microcarriers (gelibeads, K. C. Biologicals) in spinner vessels (Bellco). The growth medium was DMEM supplemented with 10% foetal calf serum. The concentration of microcarriers were 5 grams (dryweight) per liter of medium. Calls were inoculated at a density of 1×10^5 cells per ml.
After the cells had grown to confluency on the surface of the microcarriers, growth medium was aspirated and replaced with a protein-free DMEM-based maintenance medium containing the butyrate. Control cultures received no butyrate.
Cell density was determined by counting nuclei which were released from cells by hypotonic lysis (ref. Absher, in “Tissue Culture Methods and Applications”, Kruse & Patterson. Academic Press 1973). The concentration of tPA in the supernatant was assayed using the fibrin-agar method.

hybridoma cell line J = assay: Harvest antibody titre, hybridoma cell line J; assay type: cell-based
Description: as §1

CCCC(=O)[O-].[Na+] [sodium butyrate]
expression of SV40 and HSV-TK genes compared with control values [1]: inhibited the expression of both genes
HARVEST ANTIBODY TITER (hybridoma cell line H): 109 mg/L
HARVEST ANTIBODY TITER (hybridoma cell line G; 0.25 mM butyrate): 11 mg/L
HARVEST ANTIBODY TITER (hybridoma cell line G; 0.50 mM butyrate): 13 mg/L
Average specific rate of antibody production ([2]; 0.5 mM sodium butyrate): 39 μg/10^6 cells/day
Maximum antibody concentration ([2]; 0.5 mM sodium butyrate): 54 µg/mL
Average specific rate of antibody production ([2]; 0.75 mM sodium butyrate): 69 μg/10^6 cells/day
Maximum antibody concentration ([2]; 0.75 mM sodium butyrate): 55 µg/mL
HARVEST ANTIBODY TITER (hybridoma cell line B; 0.35 mM butyrate): 232 mg/L
HARVEST ANTIBODY TITER (hybridoma cell line B; 0.50 mM butyrate): 240 mg/L
Concentration of hGH in supernatant ([3]; 1 mM sodium butyrate): 1.1 arbitrary units/48 hours
Concentration of hGH in supernatant ([3]; 5 mM sodium butyrate): 2.3 arbitrary units/48 hours
HARVEST ANTIBODY TITER (hybridoma cell line D; 0.35 mM butyrate): 39 mg/L
HARVEST ANTIBODY TITER (hybridoma cell line D; 0.50 mM butyrate): 50 mg/L
HARVEST ANTIBODY TITER (hybridoma cell line C): 71 mg/L
HARVEST ANTIBODY TITER (hybridoma cell line I; 0.35 mM butyrate): 135 mg/L
HARVEST ANTIBODY TITER (hybridoma cell line I; 0.50 mM butyrate): 154 mg/L
HARVEST ANTIBODY TITER (hybridoma cell line K): 26 mg/L
HARVEST ANTIBODY TITER (hybridoma cell line A; 0.35 mM butyrate): 35 mg/L
HARVEST ANTIBODY TITER (hybridoma cell line A; 0.50 mM butyrate): 36 mg/L
CELL DENSITY ([4]; 0.5 mM butyrate, maintenance period 46 hours, control 10.8): 11.1 x10^5 cells/ml
CONCENTRATION OF TPA PER ML ([4]; 0.5 mM butyrate, maintenance period 46 hours): 159 arbitrary units
CELL DENSITY ([4]; 0.5 mM butyrate, maintenance period 92 hours, control 13.7): 10.3 x10^5 cells/ml
CONCENTRATION OF TPA PER ML ([4]; 0.5 mM butyrate, maintenance period 92 hours): 143 arbitrary units
CELL DENSITY ([4]; 0.5 mM butyrate, maintenance period 140 hours, control 19.1): 12.3 x10^5 cells/ml
CONCENTRATION OF TPA PER ML ([4]; 0.5 mM butyrate, maintenance period 140 hours): 186 arbitrary units
CELL DENSITY ([4]; 1.0 mM butyrate, maintenance period 46 hours, control 10.8): 11.5 x10^5 cells/ml
CONCENTRATION OF TPA PER ML ([4]; 1.0 mM butyrate, maintenance period 46 hours): 191 arbitrary units
CELL DENSITY ([4]; 1.0 mM butyrate, maintenance period 92 hours, control 13.7): 9.2 x10^5 cells/ml
CONCENTRATION OF TPA PER ML ([4]; 1.0 mM butyrate, maintenance period 92 hours): 157 arbitrary units
CELL DENSITY ([4]; 1.0 mM butyrate, maintenance period 140 hours, control 19.1): 9.4 x10^5 cells/ml
CONCENTRATION OF TPA PER ML ([4]; 1.0 mM butyrate, maintenance period 140 hours): 236 arbitrary units
CELL DENSITY ([4]; 2.5 mM butyrate, maintenance period 46 hours, control 10.8): 9.6 x10^5 cells/ml
CONCENTRATION OF TPA PER ML ([4]; 2.5 mM butyrate, maintenance period 46 hours): 945 arbitrary units
CELL DENSITY ([4]; 2.5 mM butyrate, maintenance period 92 hours, control 13.7): 7.6 x10^5 cells/ml
CONCENTRATION OF TPA PER ML ([4]; 2.5 mM butyrate, maintenance period 92 hours): 1782 arbitrary units
CELL DENSITY ([4]; 2.5 mM butyrate, maintenance period 140 hours, control 19.1): 6.6 x10^5 cells/ml
CONCENTRATION OF TPA PER ML ([4]; 2.5 mM butyrate, maintenance period 140 hours): 3468 arbitrary units
HARVEST ANTIBODY TITER (hybridoma cell line J; DMEM + 10% FCS, 0.50 mM butyrate, control 32): 54 mg/L
HARVEST ANTIBODY TITER (hybridoma cell line J; DMEM + 10% FCS, 0.75 mM butyrate, control 32): 55 mg/L
HARVEST ANTIBODY TITER (hybridoma cell line J; SFM, 0.50 mM butyrate, control 37): 72 mg/L
HARVEST ANTIBODY TITER (hybridoma cell line J; SFM, 1.00 mM butyrate, control 37): 102 mg/L
